Values of other authors as cited in patent US20130171256A1 (CIMA LABS Inc., priority 2010, published 2013).

Tests used:
Conditions in all cases: preclinical studies
[1] = tested on: neuronal norepinephrine reuptake
[2] = tested on: dopamine reuptake
[3] = tested on: neuronal serotonin reuptake

Structure (SMILES)	inhibition of neuronal norepinephrine reuptake [1]	inhibition of dopamine reuptake [2]	inhibition of neuronal serotonin reuptake [3]
CN(C)CC(c1ccc(O)cc1)C1(O)CCCCC1 (centres unmarked) [O-desmethylvenlafaxine]	potent inhibitors	weak inhibitors	potent inhibitors
COc1ccc(C(CN(C)C)C2(O)CCCCC2)cc1 (centres unmarked) [Venlafaxine]	potent inhibitors	weak inhibitors	–
